Measurements: ChEMBL document CHEMBL3425490, “Activity of lipo-cyclic γ-AApeptides against biofilms of Staphylococcus epidermidis and Pseudomonas aeruginosa” (Bioorg Med Chem Lett, 2015)
≈ marks a conversion by molar mass, not a printed value. Calls of active or inactive are those of the source. The calls are words filed in the database; no cut-off is given here.

Legend:
[1] = system: Staphylococcus epidermidis; test: Bactericidal activity against methicillin-resistant Staphylococcus epidermidis ATCC 35984 assessed as decrease in log10CFU/ml at 12.5 to 50 ug/ml incubated for 6 hrs followed by plating measured after 24 hrs relative to control; type: functional; conditions: for Activity: RP62A
Pseudomonas aeruginosa [2] = test: Induction of pre-existing Pseudomonas aeruginosa ATCC 27853 biofilm detachment after 24 hrs by crystal violet staining-based assay relative to control; type: functional; set-up: concentration or dose not given beside the values
[3] = system: Staphylococcus epidermidis; test: Antibacterial activity against methicillin-resistant Staphylococcus epidermidis ATCC 35984 after 18 hrs by broth microdilution method; type: functional; conditions: RP62A
Pseudomonas aeruginosa [4] = test: Bactericidal activity against Pseudomonas aeruginosa ATCC 27853 assessed as decrease in log10CFU/ml at 12.5 to 50 ug/ml incubated for 6 hrs followed by plating measured after 24 hrs relative to control; type: functional
Pseudomonas aeruginosa [5] = test: Inhibition of biofilm formation of Pseudomonas aeruginosa ATCC 27853 after 24 hrs by crystal violet staining-based assay; type: functional
[6] = system: Staphylococcus epidermidis; test: Induction of pre-existing methicillin-resistant Staphylococcus epidermidis ATCC 35984 biofilm detachment after 24 hrs by crystal violet staining-based assay relative to control; type: functional, RP62A; set-up: concentration or dose not given beside the values
[7] = Hemolytic activity in human RBC after 1 hr; type: ADME, cell-based, Erythrocyte; conditions: red blood cells (RBC)
Pseudomonas aeruginosa [8] = test: Antibacterial activity against Pseudomonas aeruginosa ATCC 27853 after 18 hrs by broth microdilution method; type: functional; conditions: ATCC 27853, 18 h
[9] = system: Staphylococcus epidermidis; test: Inhibition of biofilm formation of methicillin-resistant Staphylococcus epidermidis ATCC 35984 after 24 hrs by crystal violet staining-based assay relative to control; type: functional, RP62A
[10] = system: Staphylococcus epidermidis; test: Inhibition of biofilm formation of methicillin-resistant Staphylococcus epidermidis ATCC 35984 at 6.25 to 12.56 after 24 hrs by crystal violet staining-based assay relative to control; type: functional, RP62A
Pseudomonas aeruginosa [11] = test: Inhibition of biofilm formation of Pseudomonas aeruginosa ATCC 27853 at 6.25 to 12.56 after 24 hrs by crystal violet staining-based assay relative to control; type: functional
Pseudomonas aeruginosa [12] = test: microbe, parasite or virus in culture; conditions: 5761
Description: Antibacterial activity against Pseudomonas aeruginosa 5761 by macrobroth dilution method

Pseudomonas aeruginosa [13] = test: microbe, parasite or virus in culture; conditions: 11683
Description: Antibacterial activity against Pseudomonas aeruginosa 11683 by macrobroth dilution method

Pseudomonas aeruginosa [14] = test: microbe, parasite or virus in culture; conditions: 8545
Description: Antibacterial activity against Pseudomonas aeruginosa 8545 by macrobroth dilution method

[15] = system: Staphylococcus epidermidis; test: microbe, parasite or virus in culture; conditions: RP62A
Description: Antibacterial activity against oxacillin-susceptible Staphylococcus epidermidis ATCC 35984

[16] = system: Staphylococcus epidermidis; test: microbe, parasite or virus in culture; conditions: RP62A; remark: listed apart in the source
Description: Antibacterial activity against oxacillin-resistant Staphylococcus epidermidis ATCC 35984

SMILES	Activity [1]	Activity (Pseudomonas aeruginosa [2]) [%]	MIC [3] [µM]	Activity (Pseudomonas aeruginosa [4])	inhibition (INH) (Pseudomonas aeruginosa [5]) [%]	Activity [6] [%]	HC50 at 1 h [7] [µM]	MIC (Pseudomonas aeruginosa [8]) [µM]	inhibition (INH) [9] [%]	inhibition (INH) [10] [%]	deltalog10CFU [1]	deltalog10CFU (Pseudomonas aeruginosa [4])	inhibition (INH) (Pseudomonas aeruginosa [11]) [%]	MIC (Pseudomonas aeruginosa [12]) [µg/mL]	MIC (Pseudomonas aeruginosa [13]) [µg/mL]	inhibition (Pseudomonas aeruginosa [5])	MIC (Pseudomonas aeruginosa [14]) [µg/mL]	MIC [15] [µg/mL]	inhibition ([9]; RP62A)	MIC [16] [µg/mL]
CCCCCCCCCCCCCCCC(=O)N(CC(N)=O)C[C@H](CCCCN)NC(=O)CN1C[C@H](Cc2ccccc2)NC(=O)CN(C(=O)CCc2ccccc2)C[C@H](CCCCN)NC(=O)CN(C(=O)CCCN)C[C@H](Cc2ccccc2)NC(=O)CN(C(=O)CCc2ccccc2)C[C@H](CCCCN)NC(=O)CCC1=O	Active	50	3 (≈ 4.74 µg/mL)	Active	60	10	114	6 (≈ 9.49 µg/mL)	40	–	–	–	–	–	–	–	–	–	–	–
CCCCCCCCCCCCCCCC(=O)N(CC(N)=O)C[C@H](CCCCN)NC(=O)CN1C[C@H](Cc2ccccc2)NC(=O)CN(C(=O)CCCN)C[C@H](Cc2ccccc2)NC(=O)CN(C(=O)CCCN)C[C@H](Cc2ccccc2)NC(=O)CN(C(=O)CCCN)C[C@H](Cc2ccccc2)NC(=O)CCC1=O	–	50	0.6 (≈ 0.915 µg/mL)	–	–	30	65	3 (≈ 4.58 µg/mL)	–	70	8	6	80	–	–	–	–	–	–	–
CCCCCCCCCCCCCCCC(=O)N(CC(N)=O)C[C@H](CCCCN)NC(=O)CN1C[C@H](Cc2ccccc2)NC(=O)CN(C(=O)CCc2ccccc2)C[C@H](CCCCN)NC(=O)CN(C(=O)CCCN)C[C@H](Cc2ccccc2)NC(=O)CN(C(=O)CCCN)C[C@H](Cc2ccccc2)NC(=O)CN(C(=O)CCc2ccccc2)C[C@H](CCCCN)NC(=O)CCC1=O	–	50	3 (≈ 5.57 µg/mL)	–	60	10	82	14 (≈ 26 µg/mL)	40	–	–	–	–	–	–	–	–	–	–	–
CCCCCCCCCCCCCCCC(=O)N(CC(N)=O)C[C@H](CCCCN)NC(=O)CN1C[C@H](Cc2ccccc2)NC(=O)CN(C(=O)CCc2ccccc2)C[C@H](CCCCN)NC(=O)CN(C(=O)CCc2ccccc2)C[C@H](CCCCN)NC(=O)CN(C(=O)CCc2ccccc2)C[C@H](CCCCN)NC(=O)CN(C(=O)CCc2ccccc2)C[C@H](CCCCN)NC(=O)CCC1=O	Active	50	13 (≈ 24.9 µg/mL)	Active	60	10	130	13 (≈ 24.9 µg/mL)	40	–	–	–	–	–	–	–	–	–	–	–
O=C(O)c1cn(C2CC2)c2cc(N3CCNCC3)c(F)cc2c1=O [CIPROFLOXACIN]	Active	50	–	Active	–	30	–	–	–	–	–	–	–	0.09 (≈ 0.272 µM)	0.09 (≈ 0.272 µM)	Active	0.09 (≈ 0.272 µM)	0.12 (≈ 0.362 µM)	Active	0.12 (≈ 0.362 µM)
CCCCCCCCCCCCCCCC(=O)N(CC(N)=O)C[C@H](CCCCN)NC(=O)CN1C[C@H](Cc2ccccc2)NC(=O)CN(C(=O)CCCN)C[C@H](Cc2ccccc2)NC(=O)CN(C(=O)CCCN)C[C@H](Cc2ccccc2)NC(=O)CN(C(=O)CCc2ccccc2)C[C@H](CCCCN)NC(=O)CCC1=O	–	–	0.6 (≈ 0.932 µg/mL)	–	–	–	129	6 (≈ 9.32 µg/mL)	–	–	–	–	–	–	–	–	–	–	–	–
CCCCCCCCCCCCCCCC(=O)N(CC(N)=O)C[C@H](CCCCN)NC(=O)CN1C[C@H](Cc2ccccc2)NC(=O)CN(C(=O)CCc2ccccc2)C[C@H](CCCCN)NC(=O)CN(C(=O)CCc2ccccc2)C[C@H](CCCCN)NC(=O)CN(C(=O)CCc2ccccc2)C[C@H](CCCCN)NC(=O)CCC1=O	–	60	1 (≈ 1.61 µg/mL)	–	60	10	160	12 (≈ 19.3 µg/mL)	40	–	–	–	–	–	–	–	–	–	–	–
